ChEMBL document CHEMBL4011590, “Structure-activity relationship studies on 3,5-dinitrophenyl tetrazoles as antitubercular agents” (Eur J Med Chem, 2017)
pIC50: −log10 of the molar value. Converted amounts (≈) assume the structure as drawn.

Key:
[1] = tested on: Mycobacterium tuberculosis; assay: Antimycobacterial activity against Mycobacterium tuberculosis H37Rv CNCTC My 331/88 after 14 days by micromethod; type: functional; details: H37Rv CNCTC My 331/88, 336 h
[2] = tested on: Mycobacterium tuberculosis; assay: Antimycobacterial activity against Mycobacterium tuberculosis H37Rv CNCTC My 331/88 after 21 days by micromethod; type: functional; details: H37Rv CNCTC My 331/88, 504 h
Mycobacterium avium [3] = assay: Antimycobacterial activity against Mycobacterium avium CNCTC My 330/80 after 14 days by micromethod; type: functional; details: CNCTC My 330/80, 336 h
Mycobacterium avium [4] = assay: Antimycobacterial activity against Mycobacterium avium CNCTC My 330/80 after 21 days by micromethod; type: functional; details: CNCTC My 330/80, 504 h
Mycobacterium kansasii [5] = assay: Antimycobacterial activity against Mycobacterium kansasii CNCTC My 235/80 after 7 days by micromethod; type: functional; details: CNCTC My 235/80, 168 h
Mycobacterium kansasii [6] = assay: Antimycobacterial activity against Mycobacterium kansasii CNCTC My 235/80 after 14 days by micromethod; type: functional; details: CNCTC My 235/80, 336 h
Mycobacterium kansasii [7] = assay: Antimycobacterial activity against Mycobacterium kansasii CNCTC My 235/80 after 21 days by micromethod; type: functional; details: CNCTC My 235/80, 504 h
Mycobacterium kansasii [8] = assay: Antimycobacterial activity against Mycobacterium kansasii isolate 6509/96 after 7 days by micromethod; type: functional; details: isolate 6509/96, 168 h
Mycobacterium kansasii [9] = assay: Antimycobacterial activity against Mycobacterium kansasii isolate 6509/96 after 14 days by micromethod; type: functional; details: isolate 6509/96, 336 h
Mycobacterium kansasii [10] = assay: Antimycobacterial activity against Mycobacterium kansasii isolate 6509/96 after 21 days by micromethod; type: functional; details: isolate 6509/96, 504 h
CHO-K1 = assay: Cytotoxicity against CHOK1 cells after 24 hrs by MTT assay; type: cell-based; details: Cricetulus griseus, CHO-K1, 24 h

Compound	MIC99 [1] [µM]	MIC99 [2] [µM]	MIC99 (Mycobacterium avium [3]) [µM]	MIC99 (Mycobacterium avium [4]) [µM]	MIC99 (Mycobacterium kansasii [5]) [µM]	MIC99 (Mycobacterium kansasii [6]) [µM]	MIC99 (Mycobacterium kansasii [7]) [µM]	MIC99 (Mycobacterium kansasii [8]) [µM]	MIC99 (Mycobacterium kansasii [9]) [µM]	MIC99 (Mycobacterium kansasii [10]) [µM]	pIC50 (CHO-K1)
O=[N+]([O-])c1cc(-c2nnn(Cc3ccc(F)c(F)c3)n2)cc([N+](=O)[O-])c1	0.25 (≈ 0.0906 µg/mL)	0.5 (≈ 0.181 µg/mL)	4 (≈ 1.45 µg/mL)	8 (≈ 2.9 µg/mL)	1 (≈ 0.362 µg/mL)	2 (≈ 0.725 µg/mL)	4 (≈ 1.45 µg/mL)	1 (≈ 0.362 µg/mL)	2 (≈ 0.725 µg/mL)	2 (≈ 0.725 µg/mL)	
COc1ccccc1-n1nnnc1Sc1cc([N+](=O)[O-])cc([N+](=O)[O-])c1	4 (≈ 1.5 µg/mL)	8 (≈ 2.99 µg/mL)	16 (≈ 5.99 µg/mL)	32 (≈ 12 µg/mL)	16 (≈ 5.99 µg/mL)	32 (≈ 12 µg/mL)	62.5 (≈ 23.4 µg/mL)	8 (≈ 2.99 µg/mL)	32 (≈ 12 µg/mL)	32 (≈ 12 µg/mL)	
CO[C@H]1/C=C/O[C@@]2(C)Oc3c(C)c(O)c4c(O)c(c(/C=N/N5CCN(C)CC5)c(O)c4c3C2=O)NC(=O)/C(C)=C\C=C\[C@H](C)[C@H](O)[C@@H](C)[C@@H](O)[C@@H](C)[C@H](OC(C)=O)[C@@H]1C [RIFAMPIN]	0.25 (≈ 0.206 µg/mL)		32 (≈ 26.3 µg/mL)			0.25 (≈ 0.206 µg/mL)			0.125 (≈ 0.103 µg/mL)		
O=[N+]([O-])c1cc(-c2nnn(CSc3nnnn3C3CCCCC3)n2)cc([N+](=O)[O-])c1	0.03 (≈ 0.013 µg/mL)	0.03 (≈ 0.013 µg/mL)	8 (≈ 3.46 µg/mL)	16 (≈ 6.92 µg/mL)	0.06 (≈ 0.0259 µg/mL)	0.06 (≈ 0.0259 µg/mL)	0.06 (≈ 0.0259 µg/mL)	0.03 (≈ 0.013 µg/mL)	0.03 (≈ 0.013 µg/mL)	0.03 (≈ 0.013 µg/mL)	3.85
O=[N+]([O-])c1cc(-c2nnn(CCCSc3nnnn3-c3ccc(Br)cc3)n2)cc([N+](=O)[O-])c1	0.5 (≈ 0.267 µg/mL)	0.5 (≈ 0.267 µg/mL)	1 (≈ 0.533 µg/mL)	2 (≈ 1.07 µg/mL)	0.5 (≈ 0.267 µg/mL)	1 (≈ 0.533 µg/mL)	2 (≈ 1.07 µg/mL)	0.5 (≈ 0.267 µg/mL)	1 (≈ 0.533 µg/mL)	1 (≈ 0.533 µg/mL)	
COc1ccc(-n2nnnc2Sc2cc([N+](=O)[O-])cc([N+](=O)[O-])c2)cc1	1 (≈ 0.374 µg/mL)	1 (≈ 0.374 µg/mL)	8 (≈ 2.99 µg/mL)	16 (≈ 5.99 µg/mL)	2 (≈ 0.749 µg/mL)	4 (≈ 1.5 µg/mL)	4 (≈ 1.5 µg/mL)	2 (≈ 0.749 µg/mL)	4 (≈ 1.5 µg/mL)	4 (≈ 1.5 µg/mL)	
O=[N+]([O-])c1cc(-c2nnn(CCCCSc3nnnn3-c3ccc(Br)cc3)n2)cc([N+](=O)[O-])c1	0.5 (≈ 0.274 µg/mL)	0.5 (≈ 0.274 µg/mL)	1 (≈ 0.547 µg/mL)	1 (≈ 0.547 µg/mL)	0.5 (≈ 0.274 µg/mL)	1 (≈ 0.547 µg/mL)	1 (≈ 0.547 µg/mL)	1 (≈ 0.547 µg/mL)	1 (≈ 0.547 µg/mL)	2 (≈ 1.09 µg/mL)	
NNC(=O)c1ccncc1 [ISONIAZID]			> 250			> 250		4 (≈ 0.549 µg/mL)	4 (≈ 0.549 µg/mL)	4 (≈ 0.549 µg/mL)	
O=[N+]([O-])c1cc(-c2nnn(Cc3ccccc3)n2)cc([N+](=O)[O-])c1	0.5 (≈ 0.163 µg/mL)	1 (≈ 0.326 µg/mL)	8 (≈ 2.61 µg/mL)	8 (≈ 2.61 µg/mL)	1 (≈ 0.326 µg/mL)	2 (≈ 0.653 µg/mL)	2 (≈ 0.653 µg/mL)	1 (≈ 0.326 µg/mL)	2 (≈ 0.653 µg/mL)	2 (≈ 0.653 µg/mL)	3.82
O=[N+]([O-])c1cc(-c2nnn(CCSc3nnnn3-c3ccc(Cl)c(Cl)c3)n2)cc([N+](=O)[O-])c1	0.25 (≈ 0.127 µg/mL)	0.25 (≈ 0.127 µg/mL)	2 (≈ 1.02 µg/mL)	4 (≈ 2.04 µg/mL)	0.25 (≈ 0.127 µg/mL)	0.5 (≈ 0.255 µg/mL)	1 (≈ 0.509 µg/mL)	0.5 (≈ 0.255 µg/mL)	1 (≈ 0.509 µg/mL)	1 (≈ 0.509 µg/mL)	
COc1ccc(-n2nnnc2SCn2nnc(-c3cc([N+](=O)[O-])cc([N+](=O)[O-])c3)n2)cc1	0.25 (≈ 0.114 µg/mL)	0.5 (≈ 0.228 µg/mL)	1 (≈ 0.456 µg/mL)	1 (≈ 0.456 µg/mL)	0.5 (≈ 0.228 µg/mL)	1 (≈ 0.456 µg/mL)	2 (≈ 0.913 µg/mL)	0.25 (≈ 0.114 µg/mL)	0.5 (≈ 0.228 µg/mL)	1 (≈ 0.456 µg/mL)	
O=[N+]([O-])c1cc(Sc2nnnn2Cc2ccccc2)cc([N+](=O)[O-])c1	1 (≈ 0.358 µg/mL)	2 (≈ 0.717 µg/mL)	32 (≈ 11.5 µg/mL)	62.5 (≈ 22.4 µg/mL)	8 (≈ 2.87 µg/mL)	8 (≈ 2.87 µg/mL)	16 (≈ 5.73 µg/mL)	2 (≈ 0.717 µg/mL)	4 (≈ 1.43 µg/mL)	4 (≈ 1.43 µg/mL)	3.90
O=[N+]([O-])c1cc(Sc2nnnn2C2CCCCC2)cc([N+](=O)[O-])c1	1 (≈ 0.35 µg/mL)	1 (≈ 0.35 µg/mL)	32 (≈ 11.2 µg/mL)	32 (≈ 11.2 µg/mL)	1 (≈ 0.35 µg/mL)	1 (≈ 0.35 µg/mL)	1 (≈ 0.35 µg/mL)	1 (≈ 0.35 µg/mL)	1 (≈ 0.35 µg/mL)	1 (≈ 0.35 µg/mL)	3.82
